The record followed here is ChEMBL document CHEMBL5150060 (J Med Chem, 2022).

The source made the active and inactive calls. The rule behind the calls is not given here.

The nature of data set [1]: Stability of compound in DMEM/DMSO/acetonitrile at pH 7.4 measured after 24 hrs by HPLC analysis. It is filed as physicochemical. Particulars: read-out: Stability.
The next data set deals with Histone deacetylase 2 (Homo sapiens, UniProt Q92769). Put plainly: Inhibition of recombinant human HDAC2 using p53 (Ac-RHKK(Acetyl)-AMC) as substrate preincubated for 5 mins followed by substrate addition and measured after 30 mins by fluorescence based analysis.
Data set [2] concerns the target T1, Histone deacetylase 8 (Homo sapiens) (UniProt Q9BY41).
T1 sequence (whole entry): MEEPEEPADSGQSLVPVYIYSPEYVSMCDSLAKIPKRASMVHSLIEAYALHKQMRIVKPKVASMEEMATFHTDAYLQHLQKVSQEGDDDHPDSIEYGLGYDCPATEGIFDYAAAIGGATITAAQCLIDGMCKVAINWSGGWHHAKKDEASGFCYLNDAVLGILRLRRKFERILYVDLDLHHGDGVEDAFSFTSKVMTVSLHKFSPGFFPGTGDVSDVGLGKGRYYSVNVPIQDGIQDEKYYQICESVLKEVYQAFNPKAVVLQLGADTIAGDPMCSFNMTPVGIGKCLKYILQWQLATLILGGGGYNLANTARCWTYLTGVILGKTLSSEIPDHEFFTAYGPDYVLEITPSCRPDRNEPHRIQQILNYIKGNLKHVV
The experiment in a line: Inhibition of HDAC8 in human Jurkat T cells assessed as upregulation of IL23 expression after 6 hrs by RT-qPCR analysis. It is filed as cell-based. The note with it: dose 0.1-10 µM, DDE = dose-dependent effect. Background: Real-time PCR tracks product formation cycle by cycle.

A further data set has as its target Histone deacetylase 4 (Homo sapiens, UniProt P56524). The experiment in a line: Inhibition of HDAC4 (unknown origin).
A short description of data set [3]: Toxicity in C57BL/6 mouse assessed as change in body weight at 5 to 10 mg/kg, ip administered 5 days per week for 2 weeks. It is filed as organism-based. The note with it: in vivo, 336 h, dose 5-10 mg/kg.
The target of the next data set is T2, Histone deacetylase 11 (Homo sapiens, UniProt Q96DB2).
T2 sequence (Q96DB2 whole entry): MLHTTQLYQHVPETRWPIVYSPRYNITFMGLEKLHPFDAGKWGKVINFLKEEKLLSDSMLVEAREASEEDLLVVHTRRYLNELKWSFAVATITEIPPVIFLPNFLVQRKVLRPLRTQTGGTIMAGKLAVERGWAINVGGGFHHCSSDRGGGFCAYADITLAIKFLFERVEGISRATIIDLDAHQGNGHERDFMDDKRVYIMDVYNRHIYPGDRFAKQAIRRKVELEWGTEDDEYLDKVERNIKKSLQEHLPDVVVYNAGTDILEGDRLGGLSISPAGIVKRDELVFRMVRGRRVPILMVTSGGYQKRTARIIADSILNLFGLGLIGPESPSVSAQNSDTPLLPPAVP
Put plainly: Inhibition of recombinant human HDAC11 preincubated for 10 mins followed by substrate addition by fluorescence based analysis.

Another data set deals with Mus musculus. The experiment in a line: Immuno-modulatory activity in C57BL/6 mouse assessed as increase in proportion of CD8+ cells in spleen at 10 mg/kg, ip administered 5 days per week for 2 weeks by flow cytometry analysis. It is filed as functional, organism-based. For orientation: A flow cytometer gives signals particle by particle.
Data set [4] in a line: Toxicity in C57BL/6 mouse assessed as change in stomach weight at 5 to 10 mg/kg, ip administered 5 days per week for 2 weeks by H and E staining based assay. It is filed as organism-based. Particulars: in vivo, 336 h, dose 5-10 mg/kg.
The target in data set [5] is T3, Protein deacetylase HDAC6 (Homo sapiens, UniProt Q9UBN7).
T3 sequence (Q9UBN7 whole entry): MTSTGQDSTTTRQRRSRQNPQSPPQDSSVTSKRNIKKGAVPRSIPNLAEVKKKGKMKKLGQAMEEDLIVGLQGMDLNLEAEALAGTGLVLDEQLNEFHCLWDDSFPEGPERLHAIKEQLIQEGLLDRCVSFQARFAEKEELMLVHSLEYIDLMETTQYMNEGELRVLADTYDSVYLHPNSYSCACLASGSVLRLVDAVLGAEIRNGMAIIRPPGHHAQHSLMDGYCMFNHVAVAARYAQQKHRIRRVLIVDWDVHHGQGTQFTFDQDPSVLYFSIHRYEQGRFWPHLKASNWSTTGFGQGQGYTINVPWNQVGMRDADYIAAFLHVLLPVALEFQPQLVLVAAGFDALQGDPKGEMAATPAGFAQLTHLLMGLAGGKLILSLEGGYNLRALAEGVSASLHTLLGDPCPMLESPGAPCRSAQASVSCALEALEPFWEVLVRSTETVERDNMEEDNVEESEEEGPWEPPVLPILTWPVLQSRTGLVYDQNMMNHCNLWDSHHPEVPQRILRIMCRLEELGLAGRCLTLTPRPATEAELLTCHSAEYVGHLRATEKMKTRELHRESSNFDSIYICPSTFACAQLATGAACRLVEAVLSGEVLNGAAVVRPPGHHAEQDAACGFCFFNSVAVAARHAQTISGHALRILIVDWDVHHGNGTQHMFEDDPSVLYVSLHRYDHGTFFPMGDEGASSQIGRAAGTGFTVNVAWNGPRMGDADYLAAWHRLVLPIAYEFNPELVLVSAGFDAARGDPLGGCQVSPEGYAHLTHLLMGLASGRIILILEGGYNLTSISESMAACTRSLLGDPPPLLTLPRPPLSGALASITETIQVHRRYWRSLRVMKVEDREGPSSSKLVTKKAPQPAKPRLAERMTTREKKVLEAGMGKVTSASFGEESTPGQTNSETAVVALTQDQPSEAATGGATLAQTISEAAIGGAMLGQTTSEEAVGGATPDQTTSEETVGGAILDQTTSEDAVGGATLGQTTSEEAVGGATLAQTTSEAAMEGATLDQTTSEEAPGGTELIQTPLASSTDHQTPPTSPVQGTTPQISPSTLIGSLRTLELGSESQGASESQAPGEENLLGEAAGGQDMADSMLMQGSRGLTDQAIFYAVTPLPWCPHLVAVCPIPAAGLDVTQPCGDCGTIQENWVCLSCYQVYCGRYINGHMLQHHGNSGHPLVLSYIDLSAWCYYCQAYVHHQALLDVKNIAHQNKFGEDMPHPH
Put plainly: Inhibition of recombinant human HDAC6 (unknown origin).

A short description of data set [6]: Toxicity in C57BL/6 mouse assessed as change in spleen weight at 5 to 10 mg/kg, ip administered 5 days per week for 2 weeks by H and E staining based assay. It is filed as organism-based. The note with it: in vivo, 336 h, dose 5-10 mg/kg.
A further data set addresses Histone deacetylase 3 (Homo sapiens, UniProt O15379). Put plainly: Inhibition of recombinant human HDAC3 using p53 (Ac-RHKK(Acetyl)-AMC) as substrate preincubated for 5 mins followed by substrate addition and measured after 30 mins by fluorescence based analysis.
Data set [7] can be described thus: Toxicity in C57BL/6 mouse assessed as change in heart weight at 5 to 10 mg/kg, ip administered 5 days per week for 2 weeks by H and E staining based assay. Particulars: in vivo, 336 h, dose 5-10 mg/kg. In kind it is organism-based.
Data set [8] concerns the target T1, Histone deacetylase 8 (Homo sapiens). The experiment in a line: Inhibition of HDAC8 in human Jurkat T cells assessed as increase in H3K27 acetylation at 10 uM after 6 hrs by Western blot analysis. In kind it is cell-based. Background: A western blot detects proteins with antibodies after separation by electrophoresis.
Data set [9] has the same target. The experiment in a line: Inhibition of HDAC8 in human Jurkat T cells assessed as upregulation of IL-7R expression after 6 hrs by RT-qPCR analysis. The note with it: dose 0.1-10 µM, DDE = dose-dependent effect. It is filed as cell-based.
The target is the same in data set [10]. The experiment in a line: Inhibition of HDAC8 in human Jurkat T cells assessed as upregulation of GATA3 expression after 6 hrs by RT-qPCR analysis. In kind it is cell-based. Particulars: dose 0.1-10 µM, DDE = dose-dependent effect.

Sequence of Histone deacetylase 4 (P56524 whole entry): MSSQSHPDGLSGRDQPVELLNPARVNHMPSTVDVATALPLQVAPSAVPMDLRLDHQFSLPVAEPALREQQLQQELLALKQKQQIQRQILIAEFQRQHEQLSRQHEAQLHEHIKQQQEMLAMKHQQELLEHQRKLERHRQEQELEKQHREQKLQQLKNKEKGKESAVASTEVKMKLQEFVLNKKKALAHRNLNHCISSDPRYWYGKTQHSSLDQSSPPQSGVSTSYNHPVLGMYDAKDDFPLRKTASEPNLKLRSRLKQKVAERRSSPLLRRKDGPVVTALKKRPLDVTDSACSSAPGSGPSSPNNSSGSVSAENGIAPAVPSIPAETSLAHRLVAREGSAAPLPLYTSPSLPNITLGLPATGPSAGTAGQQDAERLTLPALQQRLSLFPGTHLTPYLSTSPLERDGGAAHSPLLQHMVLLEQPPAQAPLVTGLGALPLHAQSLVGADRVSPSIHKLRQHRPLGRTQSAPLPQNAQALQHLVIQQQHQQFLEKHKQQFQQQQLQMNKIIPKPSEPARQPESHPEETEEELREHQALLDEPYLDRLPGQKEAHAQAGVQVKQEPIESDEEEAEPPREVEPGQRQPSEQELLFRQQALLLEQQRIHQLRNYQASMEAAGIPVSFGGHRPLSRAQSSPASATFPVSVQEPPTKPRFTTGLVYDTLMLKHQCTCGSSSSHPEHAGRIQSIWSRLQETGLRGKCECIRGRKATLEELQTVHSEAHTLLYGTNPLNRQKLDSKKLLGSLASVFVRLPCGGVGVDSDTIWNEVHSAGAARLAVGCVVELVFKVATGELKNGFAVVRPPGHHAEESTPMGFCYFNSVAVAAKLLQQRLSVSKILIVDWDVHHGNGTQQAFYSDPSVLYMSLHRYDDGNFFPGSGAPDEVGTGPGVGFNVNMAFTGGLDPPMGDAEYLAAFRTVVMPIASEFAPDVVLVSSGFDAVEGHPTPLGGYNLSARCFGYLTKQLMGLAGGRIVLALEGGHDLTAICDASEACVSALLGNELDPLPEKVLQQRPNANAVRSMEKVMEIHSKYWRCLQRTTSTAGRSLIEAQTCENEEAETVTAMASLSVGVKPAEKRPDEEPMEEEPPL
Sequence of Histone deacetylase 3 (O15379 whole entry): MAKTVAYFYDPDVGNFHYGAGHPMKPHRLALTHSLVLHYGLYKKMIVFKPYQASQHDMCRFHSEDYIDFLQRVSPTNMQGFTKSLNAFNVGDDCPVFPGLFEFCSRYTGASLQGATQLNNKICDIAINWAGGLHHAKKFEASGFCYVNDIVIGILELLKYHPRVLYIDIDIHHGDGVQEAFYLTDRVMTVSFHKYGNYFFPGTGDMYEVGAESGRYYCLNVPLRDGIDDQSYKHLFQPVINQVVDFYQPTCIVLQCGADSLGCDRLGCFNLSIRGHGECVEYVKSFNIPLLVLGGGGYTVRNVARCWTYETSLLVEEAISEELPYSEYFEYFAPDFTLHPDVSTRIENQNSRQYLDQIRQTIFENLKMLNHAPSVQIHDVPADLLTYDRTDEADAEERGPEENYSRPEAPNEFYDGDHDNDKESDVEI
Sequence of Histone deacetylase 2 (Q92769 whole entry): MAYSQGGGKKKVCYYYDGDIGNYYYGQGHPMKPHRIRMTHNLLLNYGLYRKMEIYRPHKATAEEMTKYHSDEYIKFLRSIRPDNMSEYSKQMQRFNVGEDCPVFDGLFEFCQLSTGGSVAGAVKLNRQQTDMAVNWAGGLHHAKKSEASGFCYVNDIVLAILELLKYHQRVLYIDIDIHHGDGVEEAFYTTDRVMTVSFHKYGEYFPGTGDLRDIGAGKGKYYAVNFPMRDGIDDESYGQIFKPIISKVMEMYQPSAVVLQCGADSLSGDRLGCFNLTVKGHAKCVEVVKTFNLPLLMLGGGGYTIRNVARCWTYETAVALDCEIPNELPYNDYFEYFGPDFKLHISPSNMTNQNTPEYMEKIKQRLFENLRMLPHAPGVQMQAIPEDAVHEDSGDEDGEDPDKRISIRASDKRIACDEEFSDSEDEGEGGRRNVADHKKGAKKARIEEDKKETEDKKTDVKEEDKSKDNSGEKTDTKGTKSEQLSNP

One may read the IC50 as the concentration needed to halve the response being measured. Consider `CCCCCCNNC(=O)c1ccc(-c2ccc(CNC(C)=O)cc2)cc1`, for which the remaining at 24 h in data set [1] worked out at 105%. Besides, the 50% inhibitory concentration (IC50) is 12 µM on Histone deacetylase 2; above 20 µM against Histone deacetylase 4; 0.18 µM on Histone deacetylase 11; above 20 µM in data set [5]; above 20 µM at Histone deacetylase 3. Moreover, the inhibition result in data set [2], in [9] and in data set [10] was “Dde” in each case. For the same compound, the Activity entry in data set [3], in [4], in [6] and in [7] was “Non-Toxic” each time. The result with Mus musculus was Active. For the same compound, the inhibition result in data set [8] was “Active”.
